According to patent EP0501870A1, “New pharmaceutical compositions, particularly for the treatment of functional infections of the large intestines, and process for obtaining them” (SOCIETE CIVILE BIOPROJET, priority 1991, dated 1992):
pIC50: −log10 of the molar value. Each block holds one molecule with its values, some of them ahead of it.

Assays:
[1] = Multicentre clinical study in functional colopathy patients; assay type: in vivo
From the text: Une étude multicentrique chez 420 colopathes fonctionnels a été entreprise avec l'acétorphan [R,S], produit pour lequel les études de toxicité chronique chez l'animal rongeur (rat) et non rongeur (singe) autorisaient des études de longue durée (supérieure à 1 mois). […]
Le critère principal d'efficacité retenu était la douleur évaluée selon une échelle analogique. Les autres paramètres pris en considération étaient les troubles du transit, qu'il s'agisse de constipation (54,4 % des cas) ou de diarrhée (39 % des cas).

[2] = biological target: T1, enképhalinase plasmatique (Homo sapiens, UniProt P08473); assay: Plasma enkephalinase activity over time after a single oral dose; assay type: in vivo, volontaire sain; details: healthy volunteer; for Activité enképhalinase plasmatique T3O' / Activité enképhalinase plasmatique T1h / Activité enképhalinase plasmatique T8h / Activité enképhalinase plasmatique TO: 30 mg oral single dose; for Activité enképhalinase plasmatique T3O': 30 min; for Activité enképhalinase plasmatique T3O' / Activité enképhalinase plasmatique T1h / Activité enképhalinase plasmatique T8h: * p < 0.05 vs TO; for Activité enképhalinase plasmatique T1h: 1 h; for Activité enképhalinase plasmatique T8h: 8 h; for Activité enképhalinase plasmatique TO: time zero (baseline)
T1 construct: from tissue; host or cells: plasma of healthy volunteers
T1 sequence (P08473 whole entry): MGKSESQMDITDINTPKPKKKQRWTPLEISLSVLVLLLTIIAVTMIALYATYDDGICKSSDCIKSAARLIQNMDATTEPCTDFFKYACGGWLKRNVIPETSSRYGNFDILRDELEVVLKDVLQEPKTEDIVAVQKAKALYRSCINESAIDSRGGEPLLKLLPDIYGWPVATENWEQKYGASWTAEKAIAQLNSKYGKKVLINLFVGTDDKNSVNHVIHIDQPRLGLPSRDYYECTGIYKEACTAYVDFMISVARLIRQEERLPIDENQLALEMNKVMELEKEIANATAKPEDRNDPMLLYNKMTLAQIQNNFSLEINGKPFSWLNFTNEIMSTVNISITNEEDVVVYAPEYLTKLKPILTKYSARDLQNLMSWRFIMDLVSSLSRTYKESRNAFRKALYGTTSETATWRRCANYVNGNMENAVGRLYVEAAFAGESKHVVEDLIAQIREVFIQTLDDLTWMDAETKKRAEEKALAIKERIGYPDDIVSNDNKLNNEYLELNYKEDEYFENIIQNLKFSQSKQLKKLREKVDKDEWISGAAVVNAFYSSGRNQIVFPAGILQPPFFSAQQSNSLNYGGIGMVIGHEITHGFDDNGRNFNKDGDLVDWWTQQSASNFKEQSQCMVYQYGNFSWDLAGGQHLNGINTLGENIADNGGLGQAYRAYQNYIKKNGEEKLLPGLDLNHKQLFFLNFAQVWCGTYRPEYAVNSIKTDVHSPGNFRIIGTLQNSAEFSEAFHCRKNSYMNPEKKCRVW
Description: Chez le volontaire sain, l'activité enzymatique plasmatique a été évaluée en fonction du temps pour suivre l'absorption et la durée de vie des inhibiteurs étudiés, après administration orale d'un dose unique de 30 mg.
Comparaison des inhibitions enképhalinasiques plasmatiques après administration des différents composés à la dose de 30 mg par voie orale.

enképhalinase [3] = details: type of constant (IC50/Ki) not given; read-out: activité inhibitrice de l'enképhalinase; cited from earlier work
enképhalinase, sequence (P08473 whole entry, species assumed): as the sequence (P08473 whole entry) above

A.C.E. = A.C.E. (Homo sapiens, UniProt P12821); details: cited from earlier work
A.C.E., sequence (P12821 30-1306, species assumed): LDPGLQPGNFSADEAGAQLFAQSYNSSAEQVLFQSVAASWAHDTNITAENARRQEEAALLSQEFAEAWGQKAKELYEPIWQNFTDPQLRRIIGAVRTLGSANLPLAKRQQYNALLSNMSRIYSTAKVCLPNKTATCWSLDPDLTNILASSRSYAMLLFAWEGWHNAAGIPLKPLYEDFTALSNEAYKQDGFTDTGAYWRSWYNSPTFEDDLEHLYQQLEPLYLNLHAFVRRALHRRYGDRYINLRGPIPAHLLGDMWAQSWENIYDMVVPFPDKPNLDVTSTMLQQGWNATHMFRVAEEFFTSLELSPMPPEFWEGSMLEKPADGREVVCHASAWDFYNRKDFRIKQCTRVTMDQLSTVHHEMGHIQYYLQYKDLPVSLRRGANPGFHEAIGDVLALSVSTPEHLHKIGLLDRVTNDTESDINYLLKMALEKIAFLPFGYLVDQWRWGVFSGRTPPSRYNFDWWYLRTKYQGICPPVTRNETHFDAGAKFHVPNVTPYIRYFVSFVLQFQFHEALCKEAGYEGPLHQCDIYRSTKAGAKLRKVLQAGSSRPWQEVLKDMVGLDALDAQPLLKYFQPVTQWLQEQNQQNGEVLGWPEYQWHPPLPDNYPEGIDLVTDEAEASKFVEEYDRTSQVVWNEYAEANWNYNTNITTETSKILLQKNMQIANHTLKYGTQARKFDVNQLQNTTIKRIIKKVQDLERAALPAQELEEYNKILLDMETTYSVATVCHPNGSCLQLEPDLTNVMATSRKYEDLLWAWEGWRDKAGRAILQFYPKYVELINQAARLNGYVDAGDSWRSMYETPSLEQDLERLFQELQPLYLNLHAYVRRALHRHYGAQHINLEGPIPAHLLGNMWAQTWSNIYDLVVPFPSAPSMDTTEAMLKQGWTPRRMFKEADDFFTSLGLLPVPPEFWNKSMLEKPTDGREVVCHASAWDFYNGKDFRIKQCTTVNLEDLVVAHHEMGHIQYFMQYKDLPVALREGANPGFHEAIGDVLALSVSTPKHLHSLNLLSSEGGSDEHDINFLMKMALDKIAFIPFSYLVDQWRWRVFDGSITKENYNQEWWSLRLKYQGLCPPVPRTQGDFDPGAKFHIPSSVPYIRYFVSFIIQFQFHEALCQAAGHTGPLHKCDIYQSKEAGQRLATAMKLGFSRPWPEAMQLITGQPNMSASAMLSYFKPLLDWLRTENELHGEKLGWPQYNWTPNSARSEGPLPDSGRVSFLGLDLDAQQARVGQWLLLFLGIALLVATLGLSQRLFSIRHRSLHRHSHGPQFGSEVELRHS

motricité colique = assay: Post-prandial colonic motor activity recorded by strain gauges; assay type: in vivo, chien; details: dog, mean and sd of 8 values
From the text: Chez le chien, en période post-prandiale, le mélange des deux isomères [R] 65 % [S]

[4] = clinical trials in man; cited from earlier work
enképhalinase [5] = biological target: enképhalinase (Homo sapiens, UniProt P08473); details: compared with isomère [S], cited from earlier work
enképhalinase (Homo sapiens, UniProt P08473), sequence (P08473 whole entry, species assumed): as the sequence (P08473 whole entry) above

[6] = plasma enkephalinase inhibition, 30 mg oral

SMILES: CC(=O)SCC(Cc1ccccc1)C(=O)NCC(=O)OCc1ccccc1 (racemic) [acétorphan]
% d'amélioration après acétorphan 100 mg X 3, Ballonnement ([1]; 1 mois (420 sujets)): 60% | % d'amélioration après acétorphan 100 mg X 3, Douleur ([1]; 1 mois (420 sujets)): 70% | % d'amélioration après acétorphan 100 mg X 3, Troubles du transit ([1]; 1 mois (420 sujets)): 50% | % d'amélioration après acétorphan 100 mg X 3, Ballonnement ([1]; 2 mois (115 sujets)): 80% | % d'amélioration après acétorphan 100 mg X 3, Douleur ([1]; 2 mois (115 sujets)): 84,3% | % d'amélioration après acétorphan 100 mg X 3, Troubles du transit ([1]; 2 mois (115 sujets)): 81,5% | % d'amélioration après acétorphan 100 mg X 3, Ballonnement ([1]; 3 mois (40 sujets)): 90% | % d'amélioration après acétorphan 100 mg X 3, Douleur ([1]; 3 mois (40 sujets)): 87,5% | % d'amélioration après acétorphan 100 mg X 3, Troubles du transit ([1]; 3 mois (40 sujets)): 94% | sujets constipés au stade 3 ([1]; after one month of treatment): 0,9% | sujets diarrhéiques présentant une diarrhée objective et importante (d'intensité 2 et 3) ([1]; after one month of treatment, 20 % before treatment): 2,4% | sujets constipés souffrant de constipation importante (stades 2 et 3) ([1]; after one month of treatment, 32 % before treatment): 12,7%

Activité enképhalinase plasmatique T3O' [2]: 28,4* pmol/ml/min | Activité enképhalinase plasmatique T1h [2]: 21,7* pmol/ml/min | Activité enképhalinase plasmatique T8h [2]: 37* pmol/ml/min | Activité enképhalinase plasmatique TO [2]: 53,3 pmol/ml/min
SMILES: CC(=O)SC[C@@H](Cc1ccccc1)C(=O)NCC(=O)OCc1ccccc1 [[S], [S] acétorphan]
pIC50 (enképhalinase [3]): 8.66 | activité inhibitrice de l'A.C.E. (A.C.E.): résidant essentiellement dans l'isomère [S] | Index moteur (évalué par jauge de contrainte) Avant repas (-2-0 h) (motricité colique; 5 mg/kg per os): 6.3 ± 1 | effet antihypertenseur [4]: effet antihypertenseur, démontré chez l'homme

Activité enképhalinase plasmatique T3O' [2]: 40,0 pmol/ml/min | Activité enképhalinase plasmatique T1h [2]: 32,4* pmol/ml/min | Activité enképhalinase plasmatique T8h [2]: 46,1 pmol/ml/min | Activité enképhalinase plasmatique TO [2]: 52,3 pmol/ml/min | effet maximum [Cmax] [2, 6]: plus faible
SMILES: CC(=O)SC[C@H](Cc1ccccc1)C(=O)NCC(=O)OCc1ccccc1 [[R], [R] acétorphan]
durée d'action [2, 6]: plus courte que le dérivé [S] et le mélange [R] + [S] | pIC50 (enképhalinase [3]): 8.77 | activité inhibitrice de l'A.C.E. (A.C.E.): dénué d'effet sur l'A.C.E. | durée d'action vis-à-vis de l'enképhalinase (enképhalinase [5]): environ trois fois moins longue que celle de l'isomère [S] | effet maximal (enképhalinase [5]; enkephalinase inhibition): moins intense | Index moteur (évalué par jauge de contrainte) Avant repas (-2-0 h) (motricité colique; 10 mg/kg per os): 5.7 ± 0.8 | Index moteur (évalué par jauge de contrainte) Après repas (2 - 10 h) (motricité colique; 10 mg/kg per os, * p < 0.01 vs control): 15.2 ± 2.4
